Measurements from patent US9469650B2, “Melampomagnolide B derivatives” (BOARD OF TRUSTEES OF THE UNIVERSITY OF ARKANSAS, priority 2013, dated 2016).

Columns and labels:
SNB-19 = test: panel of 60 human tumor cell lines, growth inhibition (CNS Cancer); details: Homo sapiens; for GI50: SNB-19; for CC50: SNB-19, read-out: LC50; for IC (TGI): SNB-19, read-out: TGI
NCI/ADR-RES = test: panel of 60 human tumor cell lines, growth inhibition (Ovarian Cancer); details: Homo sapiens; for CC50: read-out: LC50; for IC (TGI): read-out: TGI
MCF7 = test: panel of 60 human tumor cell lines, growth inhibition (Breast Cancer); details: Homo sapiens; for CC50: MCF7, read-out: LC50; for IC (TGI): MCF7, read-out: TGI
IGROV1 = test: panel of 60 human tumor cell lines, growth inhibition (Ovarian Cancer); details: Homo sapiens; for GI50: IGROV-1; for CC50: IGROV-1, read-out: LC50; for IC (TGI): IGROV-1, read-out: TGI
TK-10 = test: panel of 60 human tumor cell lines, growth inhibition (Renal Cancer); details: Homo sapiens; for CC50: TK-10, read-out: LC50; for IC (TGI): TK-10, read-out: TGI
UO-31 = test: as above; details: Homo sapiens; for GI50: UO-31; for CC50: UO-31, read-out: LC50; for IC (TGI): UO-31, read-out: TGI
SNB-75 = test: panel of 60 human tumor cell lines, growth inhibition (CNS Cancer); details: Homo sapiens; for GI50: SNB-75; for CC50: SNB-75, read-out: LC50; for IC (TGI): SNB-75, read-out: TGI
SF-268 = test: as above; details: Homo sapiens; for GI50: SF-268; for CC50: SF-268, read-out: LC50; for IC (TGI): SF-268, read-out: TGI
MOLT-4 = test: panel of 60 human tumor cell lines, growth inhibition (Leukemia); details: Homo sapiens; for GI50: MOLT-4; for CC50: MOLT-4, read-out: LC50; for IC (TGI): MOLT-4, read-out: TGI
T-47D = test: panel of 60 human tumor cell lines, growth inhibition (Breast Cancer); details: Homo sapiens, T47D; for CC50: read-out: LC50; for IC (TGI): read-out: TGI
HCC-2998 = test: panel of 60 human tumor cell lines, growth inhibition (Colon Cancer); details: Homo sapiens; for GI50: HCC 2998; for CC50: HCC 2998, read-out: LC50; for IC (TGI): HCC 2998, read-out: TGI
HS 578T = test: panel of 60 human tumor cell lines, growth inhibition (Breast Cancer); details: Homo sapiens, Hs-578T; for CC50: read-out: LC50; for IC (TGI): read-out: TGI
SR = test: panel of 60 human tumor cell lines, growth inhibition (Leukemia); details: Homo sapiens; for CC50: read-out: LC50; for IC (TGI): read-out: TGI
786-0 = test: panel of 60 human tumor cell lines, growth inhibition (Renal Cancer); details: Homo sapiens; for GI50: 786-0; for CC50: 786-0, read-out: LC50; for IC (TGI): 786-0, read-out: TGI
MDA-MB-468 = test: panel of 60 human tumor cell lines, growth inhibition (Breast Cancer); details: Homo sapiens; for GI50: MDA-MB-468; for CC50: MDA-MB-468, read-out: LC50; for IC (TGI): MDA-MB-468, read-out: TGI
A498 = test: panel of 60 human tumor cell lines, growth inhibition (Renal Cancer); details: Homo sapiens; for GI50: A498; for CC50: A498, read-out: LC50; for IC (TGI): A498, read-out: TGI
SW-620 = test: panel of 60 human tumor cell lines, growth inhibition (Colon Cancer); details: Homo sapiens; for CC50: SW-620, read-out: LC50; for IC (TGI): SW-620, read-out: TGI
CAKI-1 = test: panel of 60 human tumor cell lines, growth inhibition (Renal Cancer); details: Homo sapiens; for GI50: CAKI-1; for CC50: CAKI-1, read-out: LC50; for IC (TGI): CAKI-1, read-out: TGI
HCT-116 = test: panel of 60 human tumor cell lines, growth inhibition (Colon Cancer); details: Homo sapiens; for CC50: HCT-116, read-out: LC50; for IC (TGI): HCT-116, read-out: TGI

## C=C1C(=O)O[C@H]2[C@H]1CC/C(COC(=O)NCCN1CCCC1)=C\CC[C@@]1(C)O[C@@H]21 [JVM 59, ((1aR,7aS,10aS,10bS,E)-1a-methyl-8-methylene-9-oxo-1a,2,3,6,7,7a,8,9,10a,10b-decahydrooxireno[2′,3′:9,10]cyclodeca[1,2-b]furan-5-yl)methyl-(2-(pyrrolidin-1-yl)ethyl)carbamate]
SNB-19
  GI50: 59.1 µM
  CC50: > 100 µM
  IC (TGI): > 100 µM
NCI/ADR-RES
  GI50: > 100 µM
  CC50: > 100 µM
  IC (TGI): > 100 µM
MCF7; MCF7, MCF7, five dose
  GI50: 3.91 µM
MCF7; MCF7, MCF7, 5-dose assay
  GI50: 3.91 µM
MCF7
  CC50: 63.7 µM
  IC (TGI): 17.1 µM
IGROV1
  GI50: 4.09 µM
  CC50: 68.5 µM
  IC (TGI): 16.2 µM
TK-10; TK-10, TK-10, five dose
  GI50: 3.11 µM
TK-10; TK-10, TK-10, 5-dose assay
  GI50: 3.11 µM
TK-10
  CC50: 40.2 µM
  IC (TGI): 14.1 µM
UO-31
  GI50: 13.4 µM
  CC50: 75.3 µM
  IC (TGI): 31.8 µM
SNB-75
  GI50: 18 µM
  CC50: > 100 µM
  IC (TGI): 79.3 µM
SF-268
  GI50: 14.7 µM
  CC50: 60.8 µM
  IC (TGI): 30 µM
MOLT-4
  GI50: 3.48 µM
  CC50: 89.7 µM
  IC (TGI): 17.5 µM
T-47D
  GI50: 4.86 µM
  CC50: 63.8 µM
  IC (TGI): 19.2 µM
HCC-2998
  GI50: 19.2 µM
  CC50: 67.9 µM
  IC (TGI): 36.1 µM
HS 578T
  GI50: 19.7 µM
  CC50: > 100 µM
  IC (TGI): 69 µM
SR
  GI50: 10.2 µM
  CC50: > 100 µM
  IC (TGI): 39.3 µM
786-0
  GI50: 14.4 µM
  CC50: 60 µM
  IC (TGI): 29.4 µM
MDA-MB-468
  GI50: 2300 nM
  CC50: 42.9 µM
  IC (TGI): 9.06 µM
A498
  GI50: 20.4 µM
  CC50: 95.2 µM
  IC (TGI): 44.1 µM
SW-620; SW-620, SW-620, five dose
  GI50: 3.46 µM
SW-620; SW-620, SW-620, 5-dose assay
  GI50: 3.46 µM
SW-620
  CC50: 47.2 µM
  IC (TGI): 13.8 µM
CAKI-1
  GI50: 6.86 µM
  CC50: 51.8 µM
  IC (TGI): 21.2 µM
HCT-116; HCT-116, HCT-116, five dose
  GI50: 3.18 µM
HCT-116; HCT-116, HCT-116, 5-dose assay
  GI50: 3.18 µM
HCT-116
  CC50: 38.2 µM
  IC (TGI): 12.7 µM

## C=C1C(=O)O[C@H]2[C@H]1CC/C(COC(=O)OCCN(C)C)=C\CC[C@@]1(C)O[C@@H]21 [JVM 2-35]
SNB-19
  GI50: 18.6 µM
  CC50: > 100 µM
  IC (TGI): 62 µM
NCI/ADR-RES
  GI50: 23.7 µM
  CC50: > 100 µM
  IC (TGI): 84.6 µM
MCF7; MCF7, MCF7, NCI five dose
  GI50: 2.92 µM
MCF7
  CC50: 56.3 µM
  IC (TGI): 13 µM
IGROV1
  GI50: 17.7 µM
  CC50: > 100 µM
  IC (TGI): 44 µM
TK-10; TK-10, TK-10, NCI five dose
  GI50: 3.92 µM
TK-10
  CC50: 43.8 µM
  IC (TGI): 15.1 µM
UO-31
  GI50: 4.58 µM
  CC50: 48.3 µM
  IC (TGI): 18.6 µM
SNB-75
  GI50: 4.96 µM
  CC50: 50.7 µM
  IC (TGI): 21.5 µM
SF-268
  GI50: 11.7 µM
  CC50: 69.3 µM
  IC (TGI): 28.5 µM
MOLT-4
  GI50: 5.5 µM
  CC50: > 100 µM
  IC (TGI): 26.1 µM
T-47D
  GI50: 2.95 µM
  CC50: 58.8 µM
  IC (TGI): 12.4 µM
HCC-2998
  GI50: 15.8 µM
  CC50: 61.9 µM
  IC (TGI): 31.3 µM
HS 578T
  GI50: 13.6 µM
  CC50: > 100 µM
  IC (TGI): 59.3 µM
SR
  GI50: 2.22 µM
  CC50: > 100 µM
  IC (TGI): 12.1 µM
786-0
  GI50: 2.75 µM
  CC50: 37.3 µM
  IC (TGI): 12.1 µM
MDA-MB-468
  GI50: 1460 nM
  CC50: 50.4 µM
  IC (TGI): 9.2 µM
A498
  GI50: 13.3 µM
  CC50: 56.6 µM
  IC (TGI): 27.4 µM
SW-620; SW-620, SW-620, NCI five dose
  GI50: 3.58 µM
SW-620
  CC50: 50.6 µM
  IC (TGI): 15 µM
CAKI-1
  GI50: 3.22 µM
  CC50: 39.9 µM
  IC (TGI): 15.6 µM
HCT-116; HCT-116, HCT-116, NCI five dose
  GI50: 2.66 µM
HCT-116
  CC50: 33.6 µM
  IC (TGI): 11.3 µM
